Measured values taken from US12703836B2, “Mixture of compounds with high molecular weights, obtained from sugar cane wax (Saccharum officinarum L.)” (CENTRO NACIONAL DE INVESTIGACIONES CIENTÍFICAS, priority 2021, dated 2026).

Tests used:
[1] = system: Mongolian gerbils with global brain Ischemia/Reperfusion (I/R); assay: Clinical symptom (neurological function) score after global cerebral ischemia by bilateral carotid occlusion/reperfusion; format: in vivo; details: 4 hours after I/R
Excerpt: (§1) For the evaluation of the neuroprotective effect of the mixture of high molecular weight substances, the object of the present invention, an experimental model of global cerebral ischemia by occlusion and reperfusion of the carotid arteries was used. The composition of High Molecular Weight Substances (HMWS) obtained in example 1 was subjected to a preclinical test with animals, in which its pharmacological effect was compared with the effects of pure extracts of Fatty Acids in the form of Salts (AcGS), fatty alcohols (AlcG) and high molecular weight aldehydes (AldG), which were administered in the dose equivalent to the proportion in which each one is present in 200 mg/kg of the HMWS Active Ingredient. Furthermore, the effect of HMWS was compared with the effect of pure free fatty acid (AcGL) extract administered at equal doses. […] Once the quarantine was over, the gerbils were distributed into 8 groups: a negative control that only received vehicle and cerebral ischemia (CI) was not induced and 7 groups with induced CI. […] All treatments were administered orally through intragastric intubation (0.5 mL/70 g body weight) 1 hour prior to induction of ischemia. […] For 6 minutes, the number of times the gerbils crossed the different quadrants with their front legs and the number of times they stopped or leaned was quantified.

[2] = system: Mongolian gerbils with global brain Ischemia/Reperfusion (I/R); assay: Locomotor activity (open field) after global cerebral ischemia/reperfusion; format: in vivo; details: 24 hours post-ischemia, oral HMWS 200, AcGS 132, AlcG 40, AldG 28, AcGL 200, ASA 60 mg/kg
Excerpt: as §1

CC(=O)Oc1ccccc1C(=O)O [ASA, aspirin]
Inhibition (%) of clinical symptom score ([1]; oral HMWS 200, AcGS 132, AlcG 40, AldG 28, AcGL 200, ASA 60 mg/kg, vs positive control): 86.6%
SC score (clinical symptoms, McGraw scale 0-5) ([1]; single oral dose 1 hour before ischemia: HMWS (example 1) 200, AcGS 132, AlcG 40, AldG 28, AcGL 200, ASA 60 mg/kg, mean ± SEM, positive control 3.00 ± 0.52): 0.40 ± 0.35
Crosses (#), open field locomotor activity ([2]; 6 minutes, mean ± SEM, positive control 355.5 ± 12.4, negative 250.8 ± 14.8): 286.2 ± 15.2 #
Inhibition (%) of hyperlocomotion (crosses) [2]: 66.2%
